Data reported in patent publication US10300058B2, “Tyrosine kinase inhibitor and uses thereof” (Xuanzhu Pharma Co., Ltd., priority 2014, dated 2019).
Where two headings read alike, the source gives them in different places.

Columns and labels:
EGFR L858R = EGFR L858R (Homo sapiens (Human), UniProt P00533, L858R); assay: Mobility Shift Assay, in vitro enzyme-inhibiting activity, EGFR L858R; format: biochemical; conditions: for IC50: Km ATP; for Selectivity WT/L858R: ratio of IC50
Description: (§1) 1. Preparation of Reagents
(§2) 2. Preparation of a Compound Solution
(§3) (1) To the second well of a 96-well plate, 5 μL 10 mM compound (dissolved in DMSO) was added, and 95 μL 100% DMSO was added to prepare 100 μL 0.5 mM compound.
(§4) (2) To other wells, 60 μL 100% DMSO was added. 20 μL compound from the second well was added to the third well, and 4-fold dilution was further performed to get 10 diluted concentrations.
(§5) (3) To the first well and the twelfth well of the 96-well plate, 100 μL 100% DMSO was separately added, and the two wells were used as control wells.
(§6) (4) 10 μL from each well of the 96-well plate was added to another 96-well plate, and 90 μL 1-fold kinase buffer was added.
(§7) (5) 5 μL from the 96-well plate was added to another 384-well plate, for example, transferred from A1 well of the 96-well plate to A1 and A2 wells of the 384-well plate, and transferred from A2 well of the 96-well plate to A3 and A4 wells of the 384-well plate, and so on.
(§8) To 384-well plate, 10 μL 2.5-fold enzyme solution was added, and incubated at room temperature for 10 min.
(§9) (5) Kinase reaction and stop
(§10) After incubation at 28° C. for a period of time (depending on kinase), 25 μL stop solution was added.
(§11) 4. Data on percent conversion was read by Caliper.
(§12) (1) Data on enzyme activity was obtained by Caliper program;
(§13) (2) Inhibition rate of enzyme activity was calculated from the data on enzyme activity by the following formula: Inhibition rate(%)=(maximal value−the measured value of a test compound)/(maximal value-minimal value)×100,
(§14) wherein, the maximal value represents the measured value of DMSO control; and the minimal value represents the measured value of blank control.
(§15) (3) Calculation of IC50 value by XLFit excel.

Pharmacokinetics in dog = format: in vivo, male Beagle dog; conditions: Beagle dog; for pharmacokinetic properties (conclusion in words): iv and po, Tables 13 and 14; for AUC(0-t) / clearance / Vd / Cmax / Tmax / bioavailability: male, plasma; for Vd: read-out: Vss; for bioavailability: read-out: F (absolute bioavailability)
Description: Test animal: male Beagle dog, 3 dogs/administration route/compound, weight: 7-12 kg.
Solvent for intraveneous injection (iv) of Compound 31: 20% DMF (N,N-dimethylformamide)+20% PEG400 (polyethylene glycol 400)+60% sterile water for injection
Compound 31 (15.40 mg) was weighed, dissolved in solvent for intraveneous injection ultrasonically, and mixed homogeneously under vortexing, to get a clear and transparent compound solution at a theoretical concentration of 0.5 mg/mL.
Solvent for intraveneous injection (iv) of Compound 2, 28: 5% DMSO+10% PEG400+85% (28% HP-β-CD)
Compound 2 (20.72 mg) and Compound 28 (16.16 mg) were weighed, respectively, dissolved by adding solvent for intraveneous injection, mixed homogeneously under vortexing, placed in a 50° C. constant temperature water bath for 20 min, and mixed homogeneously under vortexing to get a clear and transparent compound solution at a theoretical concentration of 0.5 mg/mL.
Solvent for intragastric administration (po) of Compound 2, 28, 31: 0.1% Tween 80+2% HPC (hydroxypropyl cellulose)
Preparation: HPC (hydroxypropyl cellulose) (20 g) was weighed, and slowly added to purified water (1000 mL) under stirring. Tween 80 (1 mL) was added, and the mixture was stirred until it became clear, to get a solvent for intragastric administration. Compound 2 (41.77 mg), Compound 31 (31.35 mg) and Compound 28 (31.10 mg) were weighed, respectively, solvent for intragastric administration was added, and the resultant mixture was placed in a tissue grinder, and ground at a speed of 1000 r/min. After homogeneous dispersion, the solution for intragastric administration was obtained.
For PO group: 0.167, 0.5, 1, 2, 4, 6, 8, 24 h after administration.
Blood collection: 400 μL whole blood was collected from vein of dog fore limb at each time point, added to an anticoagulation tube containing K2EDTA, and centrifuged at 8000 r/min, 4° C. for 6 min in a centrifuge to separate the plasma; the separated plasma was stored in a refrigerator at −80° C.
By means of protein precipitation, to 30 μL plasma, 200 μL internal standard (acetonitrile solution containing 50 ng/mL CNX-2006) was added; the resultant mixture was vortexted for 10 min at 1500 r/min, and centrifuged at 12000 r/min for 5 min; to a suitable amount of supernatant, a suitable amount of water was added; the resultant mixture was mixed homogeneously under vortexing and analyzed by LC-MS/MS.

[1] = test system: H1975 cell (EGFR-T790M/L858R double mutation); assay: In vitro cytologic activity, Celltiter-Glo, H1975 cells; format: cell-based, human; conditions: for IC50: Homo sapiens, NCI-H1975, 72 h, 72 h, Celltiter-Glo; for Selectivity (A431/H1975): ratio of IC50
Description: (§16) 1.1 Preparation of Cell Suspension
(§17) Culture medium was removed from culture bottle;
(§18) PBS was added to wash the cells; • pancreatin was added for digestion, and the cells were collected by centrifugation; • the cells were resuspended in a culture medium containing 10% fetal bovine serum, counted and adjusted to a concentration of 2×10^4/mL or 3×10^4/mL (cell viability must be greater than 90%); • the cell suspension was added to a 96-well plate, at 100 μL for each well, i.e., 2000/well for H1975 cell; 3000/well for A431 cell; and • the cells were cultured at 37° C. in 5% CO2 incubator overnight.
(§19) Dilution of a compound in DMSO (or water for injection) • (1) The compound was 5-fold diluted with DMSO from 10 mM to 2 mM, and then 4-fold diluted from 2 mM, to get 10 concentrations; • High control (HC, control without compound inhibition): 0.5% DMSO; • Low control (LC, control with compound inhibition): 1000 nM.
(§20) i. To each well, 99 μL growth medium containing 10% FBS was added, and then 1 μL diluted compound was added, the total volume of the well was […], and the final concentration of the compound was measured.
(§21) The test plate was left at room temperature, and equilibrated for 30 min. 80 μL culture medium was discarded. 60 μL CTG reagent (Celltiter-Glo kit) was added, and shaked for 2 min in a fast shaker, and was placed at room temperature for 10 min. The values were read by Envision instrument.

EGFR (d746-750) = EGFR (d746-750) (Homo sapiens (Human), UniProt P00533, DEL746-750); assay: Mobility Shift Assay, in vitro enzyme-inhibiting activity, EGFR (d746-750); format: biochemical; conditions: for IC50: Km ATP; for Selectivity WT/d746-750: ratio of IC50
Description: as §1, §2, §3, §4, §5, §6, §7, §8, §9, §10, §11, §12, §13, §14, §15

EGFR T790M-L858R = EGFR T790M-L858R (Homo sapiens (Human), UniProt P00533, L858R/T790M); assay: Mobility Shift Assay, in vitro enzyme-inhibiting activity, EGFR T790M-L858R; format: biochemical; conditions: for IC50: Km ATP; for Selectivity WT/T790M-L858R: ratio of IC50
Description: as §1, §2, §3, §4, §5, §6, §7, §8, §9, §10, §11, §12, §13, §14, §15

EGFR T790M = EGFR T790M (Homo sapiens (Human), UniProt P00533, T790M); assay: Mobility Shift Assay, in vitro enzyme-inhibiting activity, EGFR T790M; format: biochemical; conditions: for IC50: Km ATP; for Selectivity (WT/T790M): ratio of IC50
Description: as §1, §2, §3, §4, §5, §6, §7, §8, §9, §10, §11, §12, §13, §14, §15

[2] = test system: A431 cell (wild-type EGFR gene); assay: In vitro cytologic activity, Celltiter-Glo, A431 cells; format: cell-based; conditions: Homo sapiens, A-431, 72 h
Description: as §16, §17, §18, §19, §20, §21

[3] = Table 8, read-out: IC50 EGFRT790M-L858R

Sequence of EGFR T790M-L858R (P00533 25-1210 T790M/L858R): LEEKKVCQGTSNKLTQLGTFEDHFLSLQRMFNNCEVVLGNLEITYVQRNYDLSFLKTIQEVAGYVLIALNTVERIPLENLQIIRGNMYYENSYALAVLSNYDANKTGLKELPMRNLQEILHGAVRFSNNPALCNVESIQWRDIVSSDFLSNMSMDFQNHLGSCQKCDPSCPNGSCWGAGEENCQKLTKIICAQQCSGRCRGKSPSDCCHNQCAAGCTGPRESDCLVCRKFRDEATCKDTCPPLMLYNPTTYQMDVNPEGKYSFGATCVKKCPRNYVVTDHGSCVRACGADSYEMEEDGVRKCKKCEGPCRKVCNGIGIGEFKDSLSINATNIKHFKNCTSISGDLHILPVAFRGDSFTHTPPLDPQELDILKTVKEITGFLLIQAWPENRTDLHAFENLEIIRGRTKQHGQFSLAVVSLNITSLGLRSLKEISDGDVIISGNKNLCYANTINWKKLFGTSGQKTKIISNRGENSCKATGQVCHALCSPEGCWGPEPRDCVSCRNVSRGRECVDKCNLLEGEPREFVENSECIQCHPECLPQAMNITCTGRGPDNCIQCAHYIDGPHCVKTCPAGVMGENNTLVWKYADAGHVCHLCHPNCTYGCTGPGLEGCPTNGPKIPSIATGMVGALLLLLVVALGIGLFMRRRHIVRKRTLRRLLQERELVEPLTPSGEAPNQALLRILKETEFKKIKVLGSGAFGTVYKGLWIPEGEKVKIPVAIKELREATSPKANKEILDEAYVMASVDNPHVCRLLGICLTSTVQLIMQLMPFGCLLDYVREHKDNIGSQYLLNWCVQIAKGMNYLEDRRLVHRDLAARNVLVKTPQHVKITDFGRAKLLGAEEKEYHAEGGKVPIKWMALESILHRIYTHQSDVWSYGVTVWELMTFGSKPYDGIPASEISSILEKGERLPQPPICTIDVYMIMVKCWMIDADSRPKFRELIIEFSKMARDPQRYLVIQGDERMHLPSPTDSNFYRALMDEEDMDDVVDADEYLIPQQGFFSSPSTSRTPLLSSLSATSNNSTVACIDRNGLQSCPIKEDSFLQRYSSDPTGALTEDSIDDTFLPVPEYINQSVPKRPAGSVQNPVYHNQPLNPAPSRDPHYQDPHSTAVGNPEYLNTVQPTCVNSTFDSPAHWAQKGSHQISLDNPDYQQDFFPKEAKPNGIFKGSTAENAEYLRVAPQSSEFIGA
Sequence of EGFR L858R (P00533 25-1210 L858R): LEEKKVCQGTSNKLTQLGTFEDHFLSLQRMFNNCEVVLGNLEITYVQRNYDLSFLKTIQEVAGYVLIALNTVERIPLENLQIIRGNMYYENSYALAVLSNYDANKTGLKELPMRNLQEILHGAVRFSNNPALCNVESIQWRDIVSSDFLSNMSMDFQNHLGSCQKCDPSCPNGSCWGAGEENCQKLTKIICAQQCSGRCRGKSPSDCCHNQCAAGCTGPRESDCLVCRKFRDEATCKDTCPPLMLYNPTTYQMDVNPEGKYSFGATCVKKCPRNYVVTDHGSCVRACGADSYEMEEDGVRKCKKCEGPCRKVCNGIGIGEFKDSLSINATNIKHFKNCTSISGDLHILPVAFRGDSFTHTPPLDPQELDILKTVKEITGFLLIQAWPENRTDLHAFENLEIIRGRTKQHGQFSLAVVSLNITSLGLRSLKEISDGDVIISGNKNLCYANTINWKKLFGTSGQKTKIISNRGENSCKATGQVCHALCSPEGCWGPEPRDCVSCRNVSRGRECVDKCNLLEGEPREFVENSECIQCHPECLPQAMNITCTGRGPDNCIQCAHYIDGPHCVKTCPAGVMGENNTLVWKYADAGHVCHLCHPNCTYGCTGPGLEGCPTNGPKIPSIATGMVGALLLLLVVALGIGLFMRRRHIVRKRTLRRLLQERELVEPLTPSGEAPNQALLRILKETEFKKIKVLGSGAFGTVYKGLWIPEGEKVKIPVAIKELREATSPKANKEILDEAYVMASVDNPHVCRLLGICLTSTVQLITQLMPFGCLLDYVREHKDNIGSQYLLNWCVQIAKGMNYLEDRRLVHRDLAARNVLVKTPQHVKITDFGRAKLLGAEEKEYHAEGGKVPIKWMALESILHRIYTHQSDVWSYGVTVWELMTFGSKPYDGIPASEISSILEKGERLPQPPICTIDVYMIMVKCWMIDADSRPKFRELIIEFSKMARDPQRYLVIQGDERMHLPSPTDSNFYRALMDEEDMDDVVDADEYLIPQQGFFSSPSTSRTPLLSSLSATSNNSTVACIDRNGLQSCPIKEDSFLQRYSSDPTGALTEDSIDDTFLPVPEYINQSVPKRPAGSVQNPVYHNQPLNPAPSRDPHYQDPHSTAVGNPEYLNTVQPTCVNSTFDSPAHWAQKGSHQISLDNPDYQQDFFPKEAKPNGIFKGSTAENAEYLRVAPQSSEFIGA
Sequence of EGFR T790M (P00533 25-1210 T790M): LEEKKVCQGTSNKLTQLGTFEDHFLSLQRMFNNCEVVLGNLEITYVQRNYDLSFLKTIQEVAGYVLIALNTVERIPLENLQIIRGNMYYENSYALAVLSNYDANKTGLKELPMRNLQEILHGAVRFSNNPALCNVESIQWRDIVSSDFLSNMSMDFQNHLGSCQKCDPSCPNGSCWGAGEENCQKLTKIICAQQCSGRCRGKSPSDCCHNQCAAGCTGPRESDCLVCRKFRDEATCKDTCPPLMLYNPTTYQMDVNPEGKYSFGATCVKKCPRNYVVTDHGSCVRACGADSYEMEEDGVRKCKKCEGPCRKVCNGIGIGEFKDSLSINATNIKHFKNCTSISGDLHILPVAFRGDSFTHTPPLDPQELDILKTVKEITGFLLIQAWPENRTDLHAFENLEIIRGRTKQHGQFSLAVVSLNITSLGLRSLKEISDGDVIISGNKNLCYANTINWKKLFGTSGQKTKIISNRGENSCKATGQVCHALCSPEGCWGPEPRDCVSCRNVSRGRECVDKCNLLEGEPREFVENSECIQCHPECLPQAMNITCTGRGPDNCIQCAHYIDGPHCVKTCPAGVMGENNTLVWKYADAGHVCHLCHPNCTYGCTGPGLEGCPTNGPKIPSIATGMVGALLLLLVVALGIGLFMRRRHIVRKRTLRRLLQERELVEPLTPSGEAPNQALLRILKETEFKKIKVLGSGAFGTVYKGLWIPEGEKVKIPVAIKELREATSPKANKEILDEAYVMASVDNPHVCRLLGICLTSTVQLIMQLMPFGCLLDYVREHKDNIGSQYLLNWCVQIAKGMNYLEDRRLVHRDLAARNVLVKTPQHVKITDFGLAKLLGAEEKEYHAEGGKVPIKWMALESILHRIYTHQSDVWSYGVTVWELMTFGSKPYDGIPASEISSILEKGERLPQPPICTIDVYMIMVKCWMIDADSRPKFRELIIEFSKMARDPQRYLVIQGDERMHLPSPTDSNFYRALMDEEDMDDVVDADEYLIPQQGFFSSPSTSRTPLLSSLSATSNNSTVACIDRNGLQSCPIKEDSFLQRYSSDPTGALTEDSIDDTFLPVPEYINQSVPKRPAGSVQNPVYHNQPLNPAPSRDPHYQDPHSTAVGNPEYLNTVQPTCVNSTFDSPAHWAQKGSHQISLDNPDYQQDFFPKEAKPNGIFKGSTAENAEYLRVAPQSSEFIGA
Sequence of EGFR (d746-750) (P00533 other isoform, or with tags, fused parts or gaps del 1-668/del 746-750 limits assumed): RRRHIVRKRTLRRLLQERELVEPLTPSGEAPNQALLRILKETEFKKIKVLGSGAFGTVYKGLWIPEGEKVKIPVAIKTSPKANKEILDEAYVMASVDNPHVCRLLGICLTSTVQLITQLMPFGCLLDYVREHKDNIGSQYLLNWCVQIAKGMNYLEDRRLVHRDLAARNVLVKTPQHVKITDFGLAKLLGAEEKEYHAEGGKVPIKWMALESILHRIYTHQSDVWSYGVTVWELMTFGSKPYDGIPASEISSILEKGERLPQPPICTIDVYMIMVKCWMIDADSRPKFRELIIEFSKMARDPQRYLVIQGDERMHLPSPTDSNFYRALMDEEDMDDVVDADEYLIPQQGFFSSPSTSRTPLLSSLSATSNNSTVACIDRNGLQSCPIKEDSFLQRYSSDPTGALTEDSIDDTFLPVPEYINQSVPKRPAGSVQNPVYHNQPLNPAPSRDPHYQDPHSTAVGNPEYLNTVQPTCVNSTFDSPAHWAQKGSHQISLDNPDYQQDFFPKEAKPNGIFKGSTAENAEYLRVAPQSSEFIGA

| pharmacokinetic properties (conclusion in words) (Pharmacokinetics in dog) | AUC(0-t) (Pharmacokinetics in dog; iv, 0.5 mg/kg) [ng·h/mL] | clearance (Pharmacokinetics in dog; iv, 0.5 mg/kg) [mL/min/kg] | Vd (Pharmacokinetics in dog; iv, 0.5 mg/kg) [L/kg] | IC50 (EGFR L858R; Table 8) [nM] | IC50 ([1]; Table 10, unit inferred) [nM] | IC50 (EGFR (d746-750); Table 8) [nM] | IC50 (EGFR T790M-L858R; [3]) [nM] | IC50 (EGFR T790M; Table 4, unit inferred) [nM] | Selectivity (WT/T790M) (EGFR T790M; Table 4) | IC50 ([2]; Table 10, unit inferred) [nM] | Structure (SMILES) | Selectivity (A431/H1975) ([1]; Table 10) | also measured |
| --- | --- | --- | --- | --- | --- | --- | --- | --- | --- | --- | --- | --- | --- |
| good pharmacokinetic properties | 693 | 11.8 | 1.36 |  |  |  |  |  |  |  | C=CC(=O)Nc1cccc(Nc2nc(Nc3ccc(C4CCN(C(C)=O)CC4)cc3OC)ncc2C(F)(F)F)c1 [Compound 2, N-(3-((2-((4-(1-acetylpiperidin-4-yl)-2-methoxyphenyl)amino)-5-(trifluoromethyl)pyrimidin-4-yl)amino)phenyl)acrylamide] |  | IC50 (EGFR L858R; Table 5): 91.8 nM; Selectivity WT/L858R (EGFR L858R; Table 5): 3.7; AUC(0-t) (Pharmacokinetics in dog; po, 0.54 mg/kg): 528 ng·h/mL; Cmax (Pharmacokinetics in dog; po, 0.54 mg/kg): 211 ng/mL; Tmax (Pharmacokinetics in dog; po, 0.54 mg/kg): 0.5 h; bioavailability (Pharmacokinetics in dog; po, 0.54 mg/kg): 70%; IC50 ([1]; Table 9): 104 nM; Selectivity (A431/H1975) ([1]; Table 9): 17.7; IC50 (EGFR (d746-750); Table 5): 24.2 nM; Selectivity WT/d746-750 (EGFR (d746-750); Table 5): 14.2; IC50 (EGFR T790M-L858R; Table 5): 2.5 nM; Selectivity WT/T790M-L858R (EGFR T790M-L858R; Table 5): 140.2; IC50 (EGFR T790M; Table 1): 6.2 nM; Selectivity (WT/T790M) (EGFR T790M; Table 1): 89.0; IC50 ([2]; Table 9): 1850 nM |
|  |  |  |  | 88 | 278 | 36 | 9.8 | 9.6 | 90.7 | 2790 | C=CC(=O)Nc1cccc(Nc2nc(Nc3ccc(C4CCN(S(C)(=O)=O)CC4)cc3OC)ncc2C(F)(F)F)c1 [Compound 27, N-(3-((2-((2-methoxy-4-(1-(methylsulfonyl)piperidin-4-yl)phenyl)amino)-5-(trifluoromethyl)pyrimidin-4-yl)amino)phenyl)acrylamide] | 10.0 |  |
| good pharmacokinetic properties | 1270 | 6.67 | 0.38 |  | 278 |  |  |  |  | 2720 | C=CC(=O)Nc1cccc(Nc2nc(Nc3ccc(N4CC5(CN(C(C)=O)C5)C4)cc3OC)ncc2C(F)(F)F)c1 [Compound 31, N-(3-((2-((4-(6-acetyl-2,6-diazaspiro[3.3]heptan-2-yl)-2-methoxyphenyl)amino)-5-(trifluoromethyl)pyrimidin-4-yl)amino)phenyl)acrylamide] | 9.8 | IC50 (EGFR L858R; Table 7): 39.3 nM; Selectivity WT/L858R (EGFR L858R; Table 7): 5.4; AUC(0-t) (Pharmacokinetics in dog; po, 1 mg/kg): 545 ng·h/mL; Cmax (Pharmacokinetics in dog; po, 1 mg/kg): 261 ng/mL; Tmax (Pharmacokinetics in dog; po, 1 mg/kg): 1 h; bioavailability (Pharmacokinetics in dog; po, 1 mg/kg): 23%; IC50 (EGFR (d746-750); Table 7): 28.6 nM; Selectivity WT/d746-750 (EGFR (d746-750); Table 7): 7.4; IC50 (EGFR T790M-L858R; Table 7): 4.73 nM; Selectivity WT/T790M-L858R (EGFR T790M-L858R; Table 7): 44.4; IC50 (EGFR T790M; Table 7): 3.55 nM; Selectivity (WT/T790M) (EGFR T790M; Table 7): 59.2 |
| good pharmacokinetic properties | 1580 | 5.5 | 1.1 | 11 | 75.2 | 5.5 | 1.5 | 1.2 | 60.8 | 703 | C=CC(=O)Nc1cccc(Nc2nc(Nc3ccc(N4CCC(N5CCOCC5)CC4)cc3OC)ncc2C(F)(F)F)c1 [Compound 28, N-(3-((2-((2-methoxy-4-(4-morpholinopiperidin-1-yl)phenyl)amino)-5-(trifluoromethyl)pyrimidin-4-yl)amino)phenyl)acrylamide] | 9.4 | AUC(0-t) (Pharmacokinetics in dog; po, 1.28 mg/kg): 1820 ng·h/mL; Cmax (Pharmacokinetics in dog; po, 1.28 mg/kg): 523 ng/mL; Tmax (Pharmacokinetics in dog; po, 1.28 mg/kg): 1 h; bioavailability (Pharmacokinetics in dog; po, 1.28 mg/kg): 46% |
